# Reference: patent publication US20220127297A1, “Novel Antibacterial 3"-Derivatives Of 4,6-Disubstituted 2,5-Dideoxystreptamine Aminoglycoside Antibiotics” (AGILeBiotics B.V., priority 2018, published 2022)
# Tested on: Enterobacter cloacae 3MRGN (clinical bronchial aspirate isolate)
# Test: MIC 50, broth micro-dilution, clinical isolate
# Assay type: cell-based
# Conditions: E. Cloacae clinical isolate
# Excerpt: 3.2 Against Selected Bacteria of the ESKAPE Panel and Enterococcus faecalis (DSM Strains)
# Tested reference compounds. Amikacin sulfate (Cat. No. 01693, Chem-Impex), Gentamicin sulfate (Cat. No. G4918, Sigma Aldrich).
# Microbial strains. Enterococcus faecalis DSM 2570, Klebsiella pneumoniae DSM 26371, Acinetobacter baumannii DSM 105126, Enterobacter cloacae 3MRGN (clinical bronchial aspirate isolate).
# Culture media and equipment. BBL™ Mueller Hinton Broth 2 (Lot. BCBW1143, Cat. No. 70192, Sigma); Trypcase Soy Blood-agar plates (Cat. No. 43001, Biomérieux); Cryoinstant (contains 15% glycerol; Cat. No. 822070ZA, VWR International); GasPak™ EZ Standard Incubation Container (Cat. No. 260671, Becton Dickinson); GasPak™ EZ Campy Container System Sachets (Cat. No. 260680, Becton Dickinson); 96-well deep well plate, 1 mL (Cat. No. 0030506.200, Eppendorf); Plate lid (Cat. No. 0030131.525, Eppendorf); 96-well plate, F-bottom (Cat. No. 260860, Nunc); Incubator (Sartorius Certomat BS-1); Laminar flow (Heraeus HS12); UV/VIS meter (Perkin Elmer Lambda Bio+); Platereader (Tecan Infinite M200 Pro).
# Compound preparation. Compounds were prepared in MH2 media at a concentration of 5 mM and stored at 4° C. For testing, solutions of 128 μM were prepared in MH2, for tests against E. faecalis a solution of 512 μM was prepared. Out of these working solutions, 400 μL was transferred to wells in the first column of 96-well deep well plates. Each compound was transferred in triplicate. Plates were previously filled with 200 μL of MH2 media in all wells except for the wells in the first column. After compound and antibiotic addition, the compounds were serial two-fold diluted by transferring 200 μL from the first to the second column, then from the second to the third column and so on. Finally, 200 μL was removed from the last column.
# Inoculum preparation. Microorganisms used were all revived from 15% glycerol storage in Croinstant tubes at −28° C. by plating them on blood agar plates. A. baumanni, and E. cloacae were grown aerobically at 37° C., E. faecalis was grown microaerophilically at 37° C., and K. pneumoniae was grown aerobically at 37° C. Plates were stored at 4° C. for up to two weeks, after which new plates were prepared from −28° C. A single colony was inoculated in MH2 media and grown at 37° C. and 200 rpm to an optical density (measured by UV/Vis spectroscopy) of 0.6-0.8 at 600 nm. Out of these suspensions, actual inoculums were prepared by diluting them to an optical density of 0.1 in MH2 media. From these inoculums, 200 μL was transferred to each well, resulting in a final compound concentration range of 64 μM-31.3 nM for, K. pneumoniae, A. baumanni, and E. cloacae, and 256 μM-125 nM for E. faecalis. Plates inoculated with E. faecalis were placed inside a GasPak™ Container System with GasPak™ Campy Container System sachets. All plates were incubated at 200 rpm for 18 h under the microorganism culturing conditions mentioned above.
# MIC determination. After 18 h of growth, 200 μL was transferred to a 96-well F-bottom plate. The optical density was determined by a plate reader at 600 nm, with 10 s shaking before reading. Triplicate measurements were averaged, and a growth curve was plotted in Excel. The first column in which the growth reached half the value of maximum growth was determined as the MIC50 value for that particular compound.
# MIC50. The MIC50 of a compound was assigned at which the bacterial growth reached half the value of maximum growth.
row,SMILES,MIC50 [µM]
1,"NCCC(O)C(=O)NC1CC(N)C(OC2OC(CN)C(O)C(O)C2N)C(O)C1OC1OC(CO)C(O)C(N)C1O (stereo not shown) [ABX4001, KanaB-AHB]",2
2,"N=C(N)NC1[C@@H](O)C(OC2[C@@H](F)[C@H](O[C@H]3OC(CN)[C@@H](O)[C@H](O)C3N)C(N)C[C@H]2NC(=O)[C@@H](O)CCN)O[C@H](CO)[C@H]1O (stereo partly shown) [ABX4006, KanaB-AHB-F-Gua]",0.25 to 0.5
3,"N=C(N)NC1[C@@H](O)C(OC2[C@@H](O)[C@H](O[C@H]3OC(CN)[C@@H](O)CC3N)C(N)C[C@H]2NC(=O)[C@@H](O)CCN)O[C@H](CO)[C@H]1O (stereo partly shown) [ABX5005, Tobra-AHB-Gua]",1
4,"NCC[C@H](O)C(=O)N[C@@H]1CC(N)[C@@H](O[C@H]2OC(CN)[C@@H](O)[C@@H](O)C2N)[C@H](O)C1OC1O[C@H](CO)[C@@H](O)C(N)[C@H]1O (stereo partly drawn) [ABX4002, 3′Epi-KanaB-AHB]",4
5,"N=C(N)N[C@@H]1[C@@H](O)[C@@H](O[C@@H]2[C@@H](O)[C@H](O[C@H]3O[C@H](CN)[C@@H](O)[C@@H](O)[C@H]3N)[C@@H](N)C[C@H]2NC(=O)[C@@H](O)CCN)O[C@H](CO)[C@H]1O [ABX4005, 3′Epi-KanaB-AHB-Gua]",4 to 8
6,"N=C(N)NC1[C@@H](O)C(OC2[C@@H](F)[C@H](O[C@H]3OC(CN)[C@@H](O)[C@H](O)C3N)C(N)C[C@H]2NC(=O)[C@@H](O)CCN)O[C@H](CO)[C@H]1O (stereo partly drawn) [ABX4004, 3′epi-KanaB-AHB-F-Gua]",1
7,"N=C(N)NC1[C@@H](O)C(OC2[C@@H](O)[C@H](O[C@H]3OC(CN)[C@@H](O)[C@H](O)C3N)C(N)C[C@H]2NC(=O)[C@@H](O)CCN)O[C@H](CO)[C@H]1O (stereo partly shown) [ABX4009, KanaB-AHB-Gua]",2
8,"NCC[C@H](O)C(=O)N[C@@H]1CC(N)[C@@H](O[C@H]2OC(CN)[C@@H](O)CC2N)[C@H](F)C1OC1O[C@H](CO)[C@@H](O)C(N)[C@H]1O (stereo partly shown) [ABX5024, Tobra-AHB-F]",1
9,"NCC[C@H](O)C(=O)N[C@@H]1CC(N)[C@@H](O[C@H]2OC(CN)[C@@H](O)[C@@H](O)C2N)[C@H](F)C1OC1O[C@H](CO)[C@@H](O)C(N)[C@H]1O (stereo partly drawn) [ABX4003, 3′Epi-KanaB-AHB-F]",4
10,"NCCC(O)C(=O)NC1CC(N)C(OC2OC(CN)C(O)C(O)C2O)C(F)C1OC1OC(CO)C(O)C(N)C1O (stereo not drawn) [ABX3005, 3′Epi-KanaA-AHB-F]",4
11,"NCC[C@H](O)C(=O)N[C@@H]1C[C@H](N)[C@@H](O[C@H]2O[C@H](CN)[C@@H](O)[C@@H](O)[C@H]2O)[C@H](O)[C@H]1O[C@H]1O[C@H](CO)[C@@H](O)[C@H](N)[C@H]1O [ABX3002, 3′Epi-KanaA-AHB]",16

# Same assay, conditions: Enterobacter cloacae, E. Cloacae clinical isolate; read-out: MIC 50
row,SMILES,MIC50 [µM]
1,"N=C(NCCN)NC1C(O)[C@@H](CO)OC(OC2C(F)[C@H](O[C@H]3OC(CN)[C@@H](O)CC3N)C(N)C[C@H]2NC(=O)[C@@H](O)CCN)[C@@H]1O (stereo partly shown) [ABX5020, Tobra-AHB-F-Gua-2-amino-ethyl]",0.5
2,"N=C(NC[C@@H]1CCNC1)NC1[C@@H](O)C(OC2[C@@H](F)[C@H](O[C@H]3OC(CN)[C@@H](O)CC3N)C(N)C[C@H]2NC(=O)[C@@H](O)CCN)O[C@H](CO)[C@H]1O (stereo partly drawn) [ABX5039, Tobra-AHB-F-Gua (R) pyrrolidine-3-ylmethyl]",0.25
3,"N=C(NCCO)NC1[C@@H](O)C(OC2[C@@H](F)[C@H](O[C@H]3OC(CN)[C@@H](O)CC3N)C(N)C[C@H]2NC(=O)[C@@H](O)CCN)O[C@H](CO)[C@H]1O (stereo partly shown) [ABX5029, Tobra-AHB-F-Gua 2-hydroxy-ethyl]",1
4,"N=C(NCCCO)NC1[C@@H](O)C(OC2[C@@H](F)[C@H](O[C@H]3OC(CN)[C@@H](O)CC3N)C(N)C[C@H]2NC(=O)[C@@H](O)CCN)O[C@H](CO)[C@H]1O (stereo partly shown) [ABX5041, Tobra-AHB-F-Gua 3-hydroxy-propyl]",1
5,"N=C(NCC1CC1)NC1[C@@H](O)C(OC2[C@@H](F)[C@H](O[C@H]3OC(CN)[C@@H](O)CC3N)C(N)C[C@H]2NC(=O)[C@@H](O)CCN)O[C@H](CO)[C@H]1O (stereo partly shown) [ABX5027, Tobra-AHB-F-Gua cyclopropylmethyl]",0.5
6,"N=C(NC[C@@H]1CNCCO1)NC1[C@@H](O)C(OC2[C@@H](F)[C@H](O[C@H]3OC(CN)[C@@H](O)CC3N)C(N)C[C@H]2NC(=O)[C@@H](O)CCN)O[C@H](CO)[C@H]1O (stereo partly drawn) [ABX5040, Tobra-AHB-F-Gua (S) morpholin-2-yl methyl]",0.25
7,"C[C@@H](N)CCNC(=N)NC1[C@@H](O)C(OC2[C@@H](F)[C@H](O[C@H]3OC(CN)[C@@H](O)CC3N)C(N)C[C@H]2NC(=O)[C@@H](O)CCN)O[C@H](CO)[C@H]1O (stereo partly drawn) [ABX5047, Tobra-AHB-F-Gua (R) 3-amino-butyl]",0.25 to 0.5
8,"N=C(NC[C@H]1CCNC1)NC1[C@@H](O)C(OC2[C@@H](F)[C@H](O[C@H]3OC(CN)[C@@H](O)CC3N)C(N)C[C@H]2NC(=O)[C@@H](O)CCN)O[C@H](CO)[C@H]1O (stereo partly drawn) [ABX5042, Tobra-AHB-F-Gua (S) pyrrolidine-3-ylmethyl]",0.25
9,"N=C(NC[C@H]1CNCCO1)NC1[C@@H](O)C(OC2[C@@H](F)[C@H](O[C@H]3OC(CN)[C@@H](O)CC3N)C(N)C[C@H]2NC(=O)[C@@H](O)CCN)O[C@H](CO)[C@H]1O (stereo partly drawn) [ABX5043, Tobra-AHB-F-Gua (R) morpholin-2-yl methyl]",0.25
10,"N=C(N)NC1C(O)[C@@H](CO)OC(OC2C(F)[C@H](O[C@H]3OC(CN)[C@@H](O)CC3N)C(N)C[C@H]2NC(=O)[C@@H](O)CCN)[C@@H]1O (stereo partly shown) [ABX5006, Tobra-AHB-F-Gua]",0.25 to 0.5
11,"CC(C)(C)CCNC(=N)NC1[C@@H](O)C(OC2[C@@H](F)[C@H](O[C@H]3OC(CN)[C@@H](O)CC3N)C(N)C[C@H]2NC(=O)[C@@H](O)CCN)O[C@H](CO)[C@H]1O (stereo partly shown) [ABX5025, Tobra-AHB-F-Gua 2-tBu-ethyl]",0.5 to 1
12,"N=C(NCC1CCCO1)NC1[C@@H](O)C(OC2[C@@H](F)[C@H](O[C@H]3OC(CN)[C@@H](O)CC3N)C(N)C[C@H]2NC(=O)[C@@H](O)CCN)O[C@H](CO)[C@H]1O (stereo partly shown) [ABX5046, Tobra-AHB-F-Gua tetrahydrofuran-2-yl methyl]",1
13,"N=C(NC[C@@H]1CCCN1)NC1[C@@H](O)C(OC2[C@@H](F)[C@H](O[C@H]3OC(CN)[C@@H](O)CC3N)C(N)C[C@H]2NC(=O)[C@@H](O)CCN)O[C@H](CO)[C@H]1O (stereo partly drawn) [ABX5026, Tobra-AHB-F-Gua (S) pyrrolidine-2-yl-methyl]",0.25
14,"N=C(NCCCN)NC1[C@@H](O)C(OC2[C@@H](F)[C@H](O[C@H]3OC(CN)[C@@H](O)CC3N)C(N)C[C@H]2NC(=O)[C@@H](O)CCN)O[C@H](CO)[C@H]1O (stereo partly shown) [ABX5030, Tobra-AHB-F-Gua-3-amino-propyl]",1
15,"N=C(NCC1CCOC1)NC1[C@@H](O)C(OC2[C@@H](F)[C@H](O[C@H]3OC(CN)[C@@H](O)CC3N)C(N)C[C@H]2NC(=O)[C@@H](O)CCN)O[C@H](CO)[C@H]1O (stereo partly shown) [ABX5051, Tobra-AHB-F-Gua tetrahydrofuran-3-yl methyl]",1
16,"CNCCNC(=N)NC1[C@@H](O)C(OC2[C@@H](F)[C@H](O[C@H]3OC(CN)[C@@H](O)CC3N)C(N)C[C@H]2NC(=O)[C@@H](O)CCN)O[C@H](CO)[C@H]1O (stereo partly shown) [ABX5038, Tobra-AHB-F-Gua 2-(methylamino)ethyl]",0.5
17,"N=C(NCc1cnc[nH]1)NC1[C@@H](O)C(OC2[C@@H](F)[C@H](O[C@H]3OC(CN)[C@@H](O)CC3N)C(N)C[C@H]2NC(=O)[C@@H](O)CCN)O[C@H](CO)[C@H]1O (stereo partly shown) [ABX5050, Tobra-AHB-F-Gua imidazol-5-yl methyl]",1 to 2
